According to patent US11857519B2, “Compounds and methods for the targeted degradation of enhancer of zeste homolog 2 polypeptide” (Arvinas Operations, Inc., priority 2016, dated 2024):

These compounds were tested against T1, EZH2 (Homo sapiens, UniProt Q15910) (assay: Cellular assay of target protein degradation (VCaP cells, ELISA)). Conditions: 4 hours, protein degradation range at indicated concentration (relative to DMSO control).
T1 construct: Protocol of the Cellular Assay of Target Protein Degradation (VCaP Cells, ELISA); endogenous in cells; host or cells: VCaP cells
Format: cell-based
Procedure, shortened: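 EZH2 level measured by sandwich ELISA (TMB, A450 minus A562 background) in lysates of VCaP cells. Cells had been cultured at least 3 days in 5% CSS RPMI before 4 h compound exposure in 0.1% DMSO.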

T1 sequence (Q15910 whole entry): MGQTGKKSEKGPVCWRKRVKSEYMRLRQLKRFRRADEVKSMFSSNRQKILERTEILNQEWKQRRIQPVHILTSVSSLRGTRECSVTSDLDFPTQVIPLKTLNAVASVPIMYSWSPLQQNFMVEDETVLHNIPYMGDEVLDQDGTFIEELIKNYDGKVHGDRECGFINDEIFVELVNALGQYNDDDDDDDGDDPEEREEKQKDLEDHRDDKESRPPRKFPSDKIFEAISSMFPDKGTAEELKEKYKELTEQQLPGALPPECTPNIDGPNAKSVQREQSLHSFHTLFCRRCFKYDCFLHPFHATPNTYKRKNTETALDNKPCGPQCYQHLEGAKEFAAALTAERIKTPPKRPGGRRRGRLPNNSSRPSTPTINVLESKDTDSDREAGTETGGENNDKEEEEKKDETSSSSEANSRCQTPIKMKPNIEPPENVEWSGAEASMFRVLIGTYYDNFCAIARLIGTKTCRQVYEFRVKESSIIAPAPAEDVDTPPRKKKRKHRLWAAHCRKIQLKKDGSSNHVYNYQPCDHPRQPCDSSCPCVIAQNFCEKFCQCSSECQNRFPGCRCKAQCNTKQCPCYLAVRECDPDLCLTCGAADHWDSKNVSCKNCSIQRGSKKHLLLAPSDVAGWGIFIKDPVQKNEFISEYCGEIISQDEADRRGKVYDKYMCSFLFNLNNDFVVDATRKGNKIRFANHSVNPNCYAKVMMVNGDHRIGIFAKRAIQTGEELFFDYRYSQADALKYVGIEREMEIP
T1 sequence (O75530 whole entry partner): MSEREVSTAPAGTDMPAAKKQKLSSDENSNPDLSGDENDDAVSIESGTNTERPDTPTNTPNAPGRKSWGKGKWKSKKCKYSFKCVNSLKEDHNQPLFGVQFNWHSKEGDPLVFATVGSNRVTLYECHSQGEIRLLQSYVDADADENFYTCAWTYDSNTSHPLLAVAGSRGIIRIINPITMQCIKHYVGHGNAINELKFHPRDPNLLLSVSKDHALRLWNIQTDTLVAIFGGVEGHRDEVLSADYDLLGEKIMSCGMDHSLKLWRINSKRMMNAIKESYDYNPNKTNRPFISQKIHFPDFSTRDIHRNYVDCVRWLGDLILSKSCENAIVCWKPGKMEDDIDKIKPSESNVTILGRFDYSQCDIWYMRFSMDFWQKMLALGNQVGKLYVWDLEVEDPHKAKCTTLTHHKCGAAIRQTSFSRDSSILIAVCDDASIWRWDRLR
T1 sequence (Q15022 whole entry partner): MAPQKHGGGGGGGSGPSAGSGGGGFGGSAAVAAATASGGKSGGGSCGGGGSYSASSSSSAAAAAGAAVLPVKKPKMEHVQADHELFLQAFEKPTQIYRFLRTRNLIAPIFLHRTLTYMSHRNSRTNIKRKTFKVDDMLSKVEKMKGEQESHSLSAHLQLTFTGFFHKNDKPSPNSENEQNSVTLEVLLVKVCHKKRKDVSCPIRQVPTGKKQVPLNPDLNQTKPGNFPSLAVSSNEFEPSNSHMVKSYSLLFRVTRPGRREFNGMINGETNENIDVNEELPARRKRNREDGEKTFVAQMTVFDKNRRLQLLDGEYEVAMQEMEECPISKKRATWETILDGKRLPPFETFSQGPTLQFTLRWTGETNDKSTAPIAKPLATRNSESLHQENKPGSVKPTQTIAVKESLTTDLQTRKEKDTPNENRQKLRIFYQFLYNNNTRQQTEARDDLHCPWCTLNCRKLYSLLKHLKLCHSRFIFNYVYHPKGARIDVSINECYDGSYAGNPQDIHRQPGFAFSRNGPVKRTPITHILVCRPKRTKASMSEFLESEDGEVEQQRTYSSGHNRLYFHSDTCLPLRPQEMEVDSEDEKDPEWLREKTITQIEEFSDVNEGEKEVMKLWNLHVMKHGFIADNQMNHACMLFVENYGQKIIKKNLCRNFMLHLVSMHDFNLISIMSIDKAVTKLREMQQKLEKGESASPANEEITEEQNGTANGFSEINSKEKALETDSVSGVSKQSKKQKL

Row | Structure (SMILES) | percent target protein degradation class
1 | CCN(c1cc(-c2ccc(N3CCN(CCCCOCC(=O)N[C@H](C(=O)N4C[C@H](O)C[C@H]4C(=O)N[C@@H](C)c4ccc(-c5scnc5C)cc4)C(C)(C)C)CC3)cc2)cc(C(=O)NCc2c(C)cc(C)[nH]c2=O)c1C)C1CCOCC1 [Compound 59, (2S,4R)-1-((S)-2-(2-(4-(4-(3′-(((4,6-dimethyl-2-oxo-1,2-dihydropyridin-3-yl)methyl)carbamoyl)-5′-(ethyl(tetrahydro-2H-pyran-4-yl)amino)-4′-methyl-[1,1′-biphenyl]-4-yl)piperazin-1-yl)butoxy)acetamido)-3,3-dimethylbutanoyl)-4-hydroxy-N-((S)-1-(4-(4-methylthiazol-5-yl)phenyl)ethyl)pyrrolidine-2-carboxamide] | B (B = degradation between 30% and 60%)
2 | Cc1cc(C)c(CNC(=O)c2c(C)n(C(C)C3CCN(C(=O)COCCOCCOCC(=O)N[C@H](C(=O)N4C[C@H](O)C[C@H]4C(=O)NCc4ccc(-c5scnc5C)cc4)C(C)(C)C)CC3)c3ccccc23)c(=O)[nH]1 (stereo partly drawn) [Compound 9, N-[(4,6-dimethyl-2-oxo-1,2-dihydropyridin-3-yl)methyl]-1-{1-[1-(2-{2-[2-({[(2S)-1-[(2S,4R)-4-hydroxy-2-({[4-(4-methyl-1,3-thiazol-5-yl)phenyl]methyl}carbamoyl)pyrrolidin-1-yl]-3,3-dimethyl-1-oxobutan-2-yl]carbamoyl}methoxy)ethoxy]ethoxy}acetyl)piperidin-4-yl]ethyl}-2-methyl-1H-indole-3-carboxamide] | B (B = degradation between 30% and 60%)
3 | CCN(c1cc(-c2ccc(CN3CCC(CN4CCN(c5ccc6c(c5)C(=O)N(C5CCC(=O)NC5=O)C6=O)CC4)CC3)cc2)cc(C(=O)NCc2c(C)cc(C)[nH]c2=O)c1C)C1CCOCC1 (stereo not shown) [Compound 115, N-((4,6-dimethyl-2-oxo-1,2-dihydiopyridin-3-yl)methyl)-4′-((4-((4-(2-(2,6-dioxopiperidin-3-yl)-1,3-dioxoisoindolin-5-yl)piperazin-1-yl)methyl)piperidin-1-yl)methyl)-5-(ethyl(tetrahydro-2H-pyran-4-yl)amino)-4-methyl-[1,1′-biphenyl]-3-carboxamide] | B (B = degradation between 30% and 60%)
4 | Cc1cc(C)c(CNC(=O)c2cc(-c3ccc(CN4CCN(CCOCCCCOCCCCOCC(=O)N[C@H](C(=O)N5C[C@H](O)C[C@H]5C(=O)NCc5ccc(-c6scnc6C)cc5)C(C)(C)C)CC4)cc3)cc3c2ccn3C2CCCC2)c(=O)[nH]1 [Compound 5, 1-cyclopentyl-N-[(4,6-dimethyl-2-oxo-1,2-dihydropyridin-3-yl)methyl]-6-(4-{[4-(2-{4-[4-({[(2S)-1-[(2S,4R)-4-hydroxy-2-({[4-(4-methyl-1,3-thiazol-5-yl)phenyl]methyl}carbamoyl)pyrrolidin-1-yl]-3,3-dimethyl-1-oxobutan-2-yl]carbamoyl}methoxy)butoxy]butoxy}ethyl)piperazin-1-yl]methyl}phenyl)-1H-indole-4-carboxamide] | B (B = degradation between 30% and 60%)
5 | CCN(c1cc(-c2ccc(OCCCOCCCOc3ccc4c(c3)C(=O)N(C3CCC(=O)NC3=O)C4=O)cc2)cc(C(=O)NCc2c(C)cc(C)[nH]c2=O)c1C)C1CCOCC1 (stereo not shown) [Compound 62, N-[(4,6-dimethyl-2-oxo-1,2-dihydropyridin-3-yl)methyl]-5-{4-[3-(3-{[2-(2,6-dioxopiperidin-3-yl)-1,3-dioxo-2,3-dihydro-1H-isoindol-5-yl]oxy}propoxy)propoxy]pheny 1}-3-[ethyl(oxan-4-yl)amino]-2-methylbenzamide] | B (B = degradation between 30% and 60%)

More lines, now with the values ahead:

Row | percent target protein degradation class | Structure (SMILES)
6 | A (A = degradation more than 60%) | CCN(c1cc(-c2ccc(CCCOCCCCC(=O)N[C@H](C(=O)N3C[C@H](O)C[C@H]3C(=O)N[C@@H](C)c3ccc(-c4scnc4C)cc3)C(C)(C)C)cc2)cc(C(=O)NCc2c(C)cc(C)[nH]c2=O)c1C)C1CCOCC1 [Compound 88, (2S,4R)-1-((S)-2-(5-(3-(3′-(((4,6-dimethyl-2-oxo-1,2-dibydropyridin-3-yl)methyl)carbamoyl)-5′-(ethyl(tetrahydro-2H-pyran-4-yl)amino)-41-methyl-[1,1′-biphenyl]-4-yl)propoxy)pentanamido)-3,3-dimethylbutanoyl)-4-hydroxy-N-((S)-1-(4-(4-methylthiazol-5-yl)phenyl)ethyl)pyrrolidine-2-carboxamide]
7 | B (B = degradation between 30% and 60%) | CCN(c1cc(-c2cccc(OCCOCCOCCOCCOCCOCCNc3cccc4c3C(=O)N(C3CCC(=O)NC3=O)C4=O)c2)cc(C(=O)NCc2c(C)cc(C)[nH]c2=O)c1C)C1CCOCC1 (stereo not shown) [Compound 21, N-[(4,6-dimethyl-2-oxo-1,2-dihydropyridin-3-yl)methyl]-5-[3-({1-[2-(2,6-dioxopiperidin-3-yl)-1,3-dioxo-2,3-dihydro-1H-isoindol-4-yl]-4,7,10,13,16-pentaoxa-1-azaoctadecan-18-yl}oxy)phenyl]-3-[ethyl(oxan-4-yl)amino]-2-methylbenzamide]
8 | B (B = degradation between 30% and 60%) | CCN(c1cc(-c2ccc(OCCOCCOCCOCCOCCOc3ccc(-c4csc([C@@H]5CCCN5C(=O)[C@@H](NC(=O)[C@H](C)NC)C5CCCCC5)n4)c4ccccc34)cc2)cc(C(=O)NCc2c(C)cc(C)[nH]c2=O)c1C)C1CCOCC1 [Compound 30, 5-(4-{[1-(4-{2-[(2S)-1-[(2S)-2-cyclohexyl-2-[(2S)-2-(methylamino)propanamido]acetyl]pyrrolidin-2-yl]-1,3-thiazol-4-yl}naphthalen-1-yl)-1,4,7,10,13-pentaoxapentadecan-15-yl]oxy}phenyl)-N-[(4,6-dimethyl-2-oxo-1,2-dihydropyridin-3-yl)methyl]-3-[ethyl(oxan-4-yl)amino]-2-methylbenzamide]
9 | B (B = degradation between 30% and 60%) | CCN(c1cc(-c2ccc(OCCOCCOCCOCC(=O)N[C@H](C(=O)N3C[C@H](O)C[C@H]3C(=O)NCc3ccc(-c4scnc4C)cc3)C(C)(C)C)cc2)cc(C(=O)NCc2c(C)cc(C)[nH]c2=O)c1C)C1CCOCC1 [Compound 13, (2S,4R)-1-[(2S)-2-{1-[4-(3-{[(4,6-dimethyl-2-oxo-1,2-dihydropyridin-3-yl)methyl]carbamoyl}-5-[ethyl(oxan-4-yl)amino]-4-methylphenyl)phenyl]-1,4,7,10-tetraoxadodecan-12-amido}-3,3-dimethylbutanoyl]-4-hydroxy-N-{[4-(4-methyl-1,3-thiazol-5-yl)phenyl]methyl}pyrrolidine-2-carboxamide]
10 | B (B = degradation between 30% and 60%) | CCN(c1cc(-c2ccc(OCCOCCOc3ccc4c(c3)C(=O)N(C3CCC(=O)NC3=O)C4=O)cc2)cc(C(=O)NCc2c(C)cc(C)[nH]c2=O)c1C)C1CCOCC1 (stereo not shown) [Compound 57, N-[(4,6-dimethyl-2-oxo-1,2-dihydropyridin-3-yl)methyl]-5-{4-[2-(2-{[2-(2,6-dioxopiperidin-3-yl)-1,3-dioxo-2,3-dihydro-1H-isoindol-5-yl]oxy}ethoxy)ethoxy]phenyl}-3-[ethyl(oxan-4-yl)amino]-2-methylbenzamide]
11 | B (B = degradation between 30% and 60%) | CCN(c1cc(-c2ccc(OCCOCCOCCOCCOCCOc3cc(-c4scnc4C)ccc3CNC(=O)[C@@H]3C[C@@H](O)CN3C(=O)[C@H](C(C)C)N3Cc4ccccc4C3=O)cc2)cc(C(=O)NCc2c(C)cc(C)[nH]c2=O)c1C)C1CCOCC1 [Compound 35, (2S,4R)-N-{[2-({1-[4-(3-{[(4,6-dimethyl-2-oxo-1,2-dihydropyridin-3-yl)methyl]carbamoyl}-5-[ethyl(oxan-4-yl)amino]-4-methylphenyl)phenyl]-1,4,7,10,13-pentaoxapentadecan-15-yl}oxy)-4-(4-methyl-1,3-thiazol-5-yl)phenyl]methyl}-4-hydroxy-1-[(2S)-3-methyl-2-(1-oxo-2,3-dihydro-1H-isoindol-2-yl)butanoyl]pyrrolidine-2-carboxamide]
12 | B (B = degradation between 30% and 60%) | CCN(c1cc(-c2ccc(OCCOCCOCCOc3ccc(CCN4CC[C@@H]5CCN(C(=O)[C@@H](NC(=O)[C@H](C)NC)C6CCCCC6)[C@@H]5C4)cc3)cc2)cc(C(=O)NCc2c(C)cc(C)[nH]c2=O)c1C)C1CCOCC1 (racemic) [Compound 26, 5-[4-(2-{2-[2-(4-{2-[(3aR,7aS)-1-[(2S)-2-cyclohexyl-2-[(2S)-2-(methylamino)propanamido]acetyl]-octahydro-1H-pyrrolo[2,3-c]pyridin-6-yl]ethyl}phenoxy)ethoxy]ethoxy}ethoxy)phenyl]-N-[(4,6-dimethyl-2-oxo-1,2-dihydropyridin-3-yl)methyl]-3-[ethyl(oxan-4-yl)amino]-2-methylbenzamide]
13 | A (A = degradation more than 60%) | CCN(c1cc(-c2ccc(CN3CCN(CCOCC(=O)N[C@H](C(=O)N4C[C@H](O)C[C@H]4C(=O)N[C@@H](C)c4ccc(-c5scnc5C)cc4)C(C)(C)C)CC3)cc2)cc(C(=O)NCc2c(C)cc(C)[nH]c2=O)c1C)C1CCOCC1 [Compound 116, (2S,4R)-1-((S)-2-(2-(2-(4-((3′-(((4,6-dimethyl-2-oxo-1,2-dihydropyridin-3-yl)methyl)carbamoyl)-5′-(ethyl(tetrahydro-2H-pyran-4-yl)amino)-4′-methyl-[1,1′-biphenyl]-4-yl)methyl)piperazin-1-yl)ethoxy)acetamido)-3,3-dimethylbutanoyl)-4-hydroxy-N-((S)-1-(4-(4-methylthiazol-5-yl)phenyl)ethyl)pyrrolidine-2-carboxamide]
